Tested on: E. coli
Assay: Bacterial resistance test: solid 1 mm cube placed in E. coli solution, growth followed by OD600
Details: E. coli solution with starting OD600 0.45

Measured: OD600 value

Experimental: B) The block was putted into an E. coli solution with an OD600 value of 0.45, and the growth of the bacteria was observed.
The antibacterial properties of bacterial in the experimental groups 1 to 5 and the control group were tested, and the OD600 values represent the growth of bacterial cells.

CCc1occc(=O)c1O [experimental group 3, ethyl maltol]
lowest: at 12 hours, control group 0.55 | at 24 hours, control group 0.48 | at 2 days, control group 0.61 | at 3 days, control group 0.47
